Measured values reported in patent US20070197577A1 (priority 2003, published 2007).

What was measured:
[1] = test system: anthrax; details: monkey, in vivo; cited from earlier work

Row | Compound | melting point [°C] | monkeys that survived a lethal aerosol challenge [1]
1 | O=C(O)c1cccc(N(CCc2ccccc2)c2nnc(-c3cccc(Oc4cccc(C(F)(F)F)c4)c3)s2)c1 | 92 to 93 | –
2 | CC(C)CC(NCC(=O)NO)C(=O)NC(Cc1ccc2ccccc2c1)C(=O)NC(C)C(N)=O (stereo not shown) | 205 to 212 | –
3 | O=C(O)c1cn(C2CC2)c2cc(N3CCNCC3)c(F)cc2c1=O [ciprofloxacin] | – | 8 of 9
4 | penicillin | – | 7 of 10
